Test results reported in the supplement of paper PMC10307832.

Tests used:
Assay in all cases: relative viability (nuclei count vs DMSO), 5 days (fraction); higher = more cells survive
A-427 = system: A-427
In short: (§1)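 Five library-drug doses in √10 steps were combined with a fixed anchor-drug dose, or a single drug was given alone, by pin tool to lung cancer cell lines in 1536-well plates the day after seeding. Nuclei were stained and counted after 5 days. Relative viability is the nuclei count in treated wells over that in vehicle wells, taken as the median of duplicate plates.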

COR-L 105 = system: COR-L 105
In short: as §1

EMC-BAC-2 = system: EMC-BAC-2
In short: as §1

HARA = system: HARA
In short: as §1

HCC-366 = system: HCC-366
In short: as §1

HCC-827 = system: HCC-827
In short: as §1

HOP-62 = system: HOP-62
In short: as §1

LCLC-103H = system: LCLC-103H
In short: as §1

NCI-H1395 = system: NCI-H1395
In short: as §1

NCI-H1437 = system: NCI-H1437
In short: as §1

NCI-H1755 = system: NCI-H1755
In short: as §1

NCI-H1792 = system: NCI-H1792
In short: as §1

NCI-H1915 = system: NCI-H1915
In short: as §1

NCI-H2009 = system: NCI-H2009
In short: as §1

NCI-H23 = system: NCI-H23
In short: as §1

NCI-H460 = system: NCI-H460
In short: as §1

NCI-H522 = system: NCI-H522
In short: as §1

NCI-H727 = system: NCI-H727
In short: as §1

SK-LU-1 = system: SK-LU-1
In short: as §1

SW 1573 = system: SW 1573
In short: as §1

Work on `Nc1ccn([C@@H]2O[C@H](CO)[C@@H](O)[C@@H]2O)c(=O)n1` [Cytarabine] + Nc1ncn([C@H]2C[C@H](O)[C@@H](CO)O2)c(=O)n1 [Decitabine] (partner 2 µM) yielded a relative viability (A-427; first compound 0.005 µM) of 0.475, a relative viability (A-427; first compound 0.01581 µM) of 0.421 and a relative viability (A-427; first compound 0.05 µM) of 0.361. The relative viability (A-427; first compound 0.1581 µM) was 0.259, the relative viability (A-427; first compound 0.5 µM) was 0.263 and the relative viability (COR-L 105; first compound 0.005 µM) was 0.623. It also gave a relative viability (COR-L 105; first compound 0.01581 µM) of 0.642, a relative viability (COR-L 105; first compound 0.05 µM) of 0.426 and a relative viability (COR-L 105; first compound 0.1581 µM) of 0.398. For the same compound, the relative viability (COR-L 105; first compound 0.5 µM) was 0.303, the relative viability (EMC-BAC-2; first compound 0.005 µM) was 0.943 and the relative viability (EMC-BAC-2; first compound 0.01581 µM) was 0.836. The relative viability (EMC-BAC-2; first compound 0.05 µM) was 0.597, the relative viability (EMC-BAC-2; first compound 0.1581 µM) was 0.315 and the relative viability (EMC-BAC-2; first compound 0.5 µM) was 0.332. It also gave a relative viability (HARA; first compound 0.005 µM) of 0.448, a relative viability (HARA; first compound 0.01581 µM) of 0.236 and a relative viability (HARA; first compound 0.05 µM) of 0.347. The relative viability (HARA; first compound 0.1581 µM) was 0.173, the relative viability (HARA; first compound 0.5 µM) was 0.18 and the relative viability (HCC-366; first compound 0.005 µM) was 0.402. For the same compound, the relative viability (HCC-366; first compound 0.01581 µM) was 0.292, the relative viability (HCC-366; first compound 0.05 µM) was 0.231 and the relative viability (HCC-366; first compound 0.1581 µM) was 0.0925. For the same compound, the relative viability (HCC-366; first compound 0.5 µM) was 0.0894, the relative viability (HCC-827; first compound 0.005 µM) was 0.232 and the relative viability (HCC-827; first compound 0.01581 µM) was 0.239. For the same compound, the relative viability (HCC-827; first compound 0.05 µM) was 0.182, the relative viability (HCC-827; first compound 0.1581 µM) was 0.152 and the relative viability (HCC-827; first compound 0.5 µM) was 0.167. For the same compound, the relative viability (HOP-62; first compound 0.005 µM) was 0.222, the relative viability (HOP-62; first compound 0.01581 µM) was 0.189 and the relative viability (HOP-62; first compound 0.05 µM) was 0.179. It also gave a relative viability (HOP-62; first compound 0.1581 µM) of 0.162, a relative viability (HOP-62; first compound 0.5 µM) of 0.126 and a relative viability (LCLC-103H; first compound 0.005 µM) of 0.71. It also gave a relative viability (LCLC-103H; first compound 0.01581 µM) of 0.734, a relative viability (LCLC-103H; first compound 0.05 µM) of 0.73 and a relative viability (LCLC-103H; first compound 0.1581 µM) of 0.751. It also gave a relative viability (LCLC-103H; first compound 0.5 µM) of 0.724, a relative viability (NCI-H1395; first compound 0.005 µM) of 0.634 and a relative viability (NCI-H1395; first compound 0.01581 µM) of 0.688. For the same compound, the relative viability (NCI-H1395; first compound 0.05 µM) was 0.529, the relative viability (NCI-H1395; first compound 0.1581 µM) was 0.368 and the relative viability (NCI-H1395; first compound 0.5 µM) was 0.364. For the same compound, the relative viability (NCI-H1437; first compound 0.005 µM) was 0.498, the relative viability (NCI-H1437; first compound 0.01581 µM) was 0.442 and the relative viability (NCI-H1437; first compound 0.05 µM) was 0.48. The relative viability (NCI-H1437; first compound 0.1581 µM) was 0.338, the relative viability (NCI-H1437; first compound 0.5 µM) was 0.268 and the relative viability (NCI-H1755; first compound 0.005 µM) was 0.705. For the same compound, the relative viability (NCI-H1755; first compound 0.01581 µM) was 0.619, the relative viability (NCI-H1755; first compound 0.05 µM) was 0.659 and the relative viability (NCI-H1755; first compound 0.1581 µM) was 0.472. The relative viability (NCI-H1755; first compound 0.5 µM) was 0.424, the relative viability (NCI-H1792; first compound 0.01581 µM) was 0.647 and the relative viability (NCI-H1792; first compound 0.05 µM) was 0.387. It also gave a relative viability (NCI-H1792; first compound 0.1581 µM) of 0.251, a relative viability (NCI-H1792; first compound 0.5 µM) of 0.205 and a relative viability (NCI-H1915; first compound 0.005 µM) of 0.248. The relative viability (NCI-H1915; first compound 0.01581 µM) was 0.289, the relative viability (NCI-H1915; first compound 0.05 µM) was 0.269 and the relative viability (NCI-H1915; first compound 0.1581 µM) was 0.231. It also gave a relative viability (NCI-H1915; first compound 0.5 µM) of 0.227, a relative viability (NCI-H2009; first compound 0.005 µM) of 0.325 and a relative viability (NCI-H2009; first compound 0.01581 µM) of 0.363. The relative viability (NCI-H2009; first compound 0.05 µM) was 0.342, the relative viability (NCI-H2009; first compound 0.1581 µM) was 0.243 and the relative viability (NCI-H2009; first compound 0.5 µM) was 0.189. For the same compound, the relative viability (NCI-H23; first compound 0.005 µM) was 0.296, the relative viability (NCI-H23; first compound 0.01581 µM) was 0.267 and the relative viability (NCI-H23; first compound 0.05 µM) was 0.274. For the same compound, the relative viability (NCI-H23; first compound 0.1581 µM) was 0.195, the relative viability (NCI-H23; first compound 0.5 µM) was 0.193 and the relative viability (NCI-H460; first compound 0.005 µM) was 0.451. The relative viability (NCI-H460; first compound 0.01581 µM) was 0.406, the relative viability (NCI-H460; first compound 0.05 µM) was 0.336 and the relative viability (NCI-H460; first compound 0.1581 µM) was 0.0621. For the same compound, the relative viability (NCI-H460; first compound 0.5 µM) was 0.0458, the relative viability (NCI-H522; first compound 0.005 µM) was 0.653 and the relative viability (NCI-H522; first compound 0.01581 µM) was 0.608. For the same compound, the relative viability (NCI-H522; first compound 0.05 µM) was 0.628, the relative viability (NCI-H522; first compound 0.1581 µM) was 0.484 and the relative viability (NCI-H522; first compound 0.5 µM) was 0.335. It also gave a relative viability (NCI-H727; first compound 0.005 µM) of 0.964, a relative viability (NCI-H727; first compound 0.01581 µM) of 0.713 and a relative viability (NCI-H727; first compound 0.05 µM) of 0.443. The relative viability (NCI-H727; first compound 0.1581 µM) was 0.474, the relative viability (NCI-H727; first compound 0.5 µM) was 0.522 and the relative viability (SK-LU-1; first compound 0.005 µM) was 0.526. It also gave a relative viability (SK-LU-1; first compound 0.01581 µM) of 0.565, a relative viability (SK-LU-1; first compound 0.05 µM) of 0.524 and a relative viability (SK-LU-1; first compound 0.1581 µM) of 0.462. The relative viability (SK-LU-1; first compound 0.5 µM) was 0.372, the relative viability (SW 1573; first compound 0.005 µM) was 0.347 and the relative viability (SW 1573; first compound 0.01581 µM) was 0.184. For the same compound, the relative viability (SW 1573; first compound 0.05 µM) was 0.247, the relative viability (SW 1573; first compound 0.1581 µM) was 0.121 and the relative viability (SW 1573; first compound 0.5 µM) was 0.083.
